Laboratory results: US20260035339A1, “TETRAHYDRONAPHTHALENE DERIVATIVE” (ATRANSEN PHARMA LTD., priority 2022, published 2026)

Tests used:
[1] = biological target: T1, human LAT1 (Homo sapiens, UniProt Q01650); test: Leucine uptake persistence inhibitory effect after compound removal in human-LAT1 highly expressing cell line; format: cell-based; details: 20 μM compound for 30 minutes, removed, uptake measured 30 minutes later
Experimental: The uptake of [^14C]L-leucine remaining after the compound of the present invention was caused to act in advance and removed in the human-LAT1 highly expressing cell line was examined. In the same manner as in the uptake inhibition test, the cell line was seeded in a 24-well plate, and an MEM (Minimum Essential Medium) medium containing 20 μM of the compound (racemic form) was added to the wells and allowed to act for 30 minutes. An MEM medium containing no compound was used as a control. After the compound was caused to act, the cells were washed 3 times with the MEM medium and cultured in the MEM medium for an additional 30 minutes. Thereafter, washing was performed 3 times with Na^+Free-HBSS, and 1 μM of [^14C]L-leucine dissolved in Na^+Free-HBSS was taken up for 1 minute. The cells were washed 3 times with ice-cooled Na^+Free-HBSS, and the amount of [^14C]L-leucine taken up in the cells was determined with a liquid scintillator. In the same manner as in other tests, the amount of protein in the cell fluid was measured, and the uptake amount of [^14C]L-leucine per 1 mg of protein in the cell fluid per minute was determined.

[2] = tested on: Mouse triple negative breast cancer cells 4T1 and mouse colorectal cancer cells CT26; test: BNCT-enhancing effect using mouse allograft tumor model; format: in vivo, BALB/c mice; details: neutron rays 5 MW for 30 minutes
Experimental: Mouse triple negative breast cancer cells 4T1 and mouse colorectal cancer cells CT26 were plate-cultured and then transplanted subcutaneously into the lower limbs of BALB/c mice. After 1 week, 400 mg/kg of L-[10B]BPA or a solvent as a control was intravenously administered through the tail vein. In Group 1, the compound of Example 1-45 was administered intravenously at a dose of 25 mg/kg after 1 hour and 1.5 hours from the administration of L-[10B]BPA. In Group 2, the solvent was administered instead of L-[10B]BPA, and after 1 hour and 1.5 hours, the compound of Example 1-45 obtained in the present invention was administered intravenously at a dose of 25 mg/kg. In Group 3, the solvent was administered intravenously instead of the compound of Example 1-45 after 1 hour and 1.5 hours from the administration of L-[10B]BPA. For Groups 1, 2, and 3, the lower limbs were irradiated with neutron rays under anesthesia after 2.5 hours from L-[10B]BPA administration or solvent administration as the control (5 MW for 30 minutes). The tumors were excised after 11 days from irradiation and the volumes thereof were compared.

[3] = biological target: T1, human LAT1; test: [14C]L-leucine uptake inhibition test using human-LAT1 stably expressing HEK293 cell line; format: cell-based; parameters: having full-length cDNA of human LAT1 or LAT2 inserted under a promoter of CMV; expressed in transfected cells; key to Assay Data: degree of [14C]L-leucine uptake inhibition compared with BCH: a test compound having a higher inhibitory effect than BCH is denoted by A; a test compound having the same inhibitory effect as BCH is denoted by B; a test compound having a lower inhibitory effect than BCH is denoted by C; details: for Assay Data: degree of [14C]L-leucine uptake inhibition compared with BCH: compound (racemic form) and BCH at 0.1, 1.0, 10 μM, 1 μM [14C]L-leucine, 1 minute, Na+-free HBSS; for LAT1 inhibitory effect, compounds singled out (in words): same test as Table 1
Text: HEK293 cells stably expressing human LAT1 and LAT2 were produced, respectively.
A shuttle vector DNA (LAT1: pcDNA3.1(+) -hLAT1, LAT2: pcDNA3.1(+) -hLAT2; expression vector pcDNA3.1 (+) was produced by Invitrogen Corp.) having ampicillin and neomycin resistance markers and having full-length cDNA of human LAT1 or LAT2 inserted under a promoter of CMV (cytomegalovirus) was constructed. This vector was transfected into the HEK293 cells by a method using Lipofectamine (registered trademark) 2000 (Invitrogen Corp.) according to the manufacturer's instructions. Thereafter, stably expressing cell clones of transgene were selected by a limiting dilution method in the presence of 0.9 mg/mL of Geneticin (registered trademark), and among the obtained cell clones, cell clones having a high uptake of [^14C]L-leucine and maintaining stable expression even after 10 passages were obtained. These cells were used for evaluating affinity and selectivity for LAT1 and LAT2.
1-1. It has been confirmed that LAT1 is responsible for L-leucine uptake in the absence of sodium ions in the human-LAT1 stably expressing HEK293 cell line. The human-LAT1 stably expressing HEK293 cell line was seeded in a 24-well plate at 1×10^5 Cell/Well, and the [^14C]L-leucine uptake inhibition test using the compound was performed after 48 hours. After the medium was removed and the cells were washed with Hank's balanced salt solution (Na^+-free HBSS) not containing sodium ions, the cells were cultured in Na^+-free HBSS for 10 minutes. Thereafter, 1 μM of [^14C]L-leucine was taken up in Na^+-free HBSS in the presence of a test compound (0.1, 1.0, 10, 0 μM in each case), which is a racemic form, for 1 minute, and then the cells were washed three times with ice-cooled Na^+-free HBSS. To the well, 500 μL of 1 M NaOH was added, and after 30 minutes, the cells were lysed, and the cell lysate was collected. The amount of [^14C]L-leucine in the cell lysate was determined using a liquid scintillator. The amount of protein in the cell lysate was measured using BCA Assay Kit (Thermofisher Scientific), and the uptake amount of [^14C]L-leucine per 1 mg of protein in the cell per minute was calculated.
The degree of LAT1 inhibition of the compound obtained in the present invention was compared with BCH (BCH, 2-aminobicyclo-(2,2,1)-heptane-2-carboxylic acid), which is an existing LAT1 inhibitor. In the [^14C]L-leucine uptake inhibition test described above, the degrees of inhibition of [^14C]L-leucine uptake inhibition using the compound (racemic form) obtained in Examples and BCH (0.1, 1.0, 10, 0 μM for both) were compared. […] In the table, a test compound having a higher inhibitory effect than BCH is denoted by A, a test compound having the same inhibitory effect as BCH is denoted by B, and a test compound having a lower inhibitory effect than BCH is denoted by C.

[4] = tested on: Mouse colorectal cancer-derived CT26 cells; test: Cell proliferation inhibitory effect using mouse colorectal cancer cells (CCK-8 assay); format: cell-based; details: 72 hours compound treatment, read-out: Evaluation of IC50 (proliferation inhibition rate of 50%)
Experimental: Mouse colorectal cancer-derived CT26 cells were adjusted to […], seeded in a 96-well plate at 1000 cells/well, and cultured in a 10% fetal bovine serum-added RPMI 1640 medium at 5% CO2 and 37° C. The culture medium was changed 24 hours after the start of the culture, and the medium containing the compound of Example was replaced to examine the action of the compound on cell proliferation. As the compound, a concentration of 0.01, 0.03, 0.1, 0.3, 1, 3, 10, or 30 μM was used. As a control, the cells were cultured in a medium containing no compound. The number of cells was evaluated by CCK-8 assay (Cell Counting Kit-8, DOJINDO LABORATORIES) 72 hours after the start of the compound treatment, and the compound concentration (IC50 value) giving a proliferation inhibition rate of 50% as compared with the control was calculated.

[5] = tested on: Human breast cancer cells MCF7; test: BNCT-enhancing effect by L-BPA confinement using cultured cells (colony formation after neutron irradiation); format: cell-based; details: MCF7 loaded with 100 μM L-[10B]BPA, not treated with Example 1-1; neutron rays 5 MW for 4 minutes
Experimental: Human breast cancer cells MCF7 were plate-cultured in an RPMI medium for 48 hours, then replaced with an RPMI medium containing 100 μM of L-[10B]BPA, and cultured for 15 minutes to allow the L-[10B]BPA to be taken up in the cells. After washing with HBSS, the cells were cultured in an RPMI medium for 60 minutes, and after further washing with HBSS, the cells were peeled off and stored in HBSS at room temperature for 1.5 hours ((−) in FIG. 3A). L-BPA was taken up in the cells, washed with HBSS and then cultured in an RPMI medium containing the compound of Example 1-1 (10 μM) obtained in the present invention for 60 minutes, and after further washing with HBSS, the cells were peeled off and stored in HBSS at room temperature for 1.5 hours ((+) in FIG. 3A). The cells were cultured in an RPMI medium containing no L-[10B]BPA for 15 minutes, and after washing with HBSS, the cells were peeled off and stored in HBSS at room temperature for 1.5 hours ((No BPA Hot control) in FIG. 3A). These three cell samples were irradiated with neutron rays (5 MW for 4 minutes). After irradiation, in order to measure viable cells, the cells were plate-cultured and the number of colonies generated after 2 weeks was measured. The number of viable cells was evaluated as surviving fraction (%) (FIG. 3A).

T1 sequence (Q01650 whole entry): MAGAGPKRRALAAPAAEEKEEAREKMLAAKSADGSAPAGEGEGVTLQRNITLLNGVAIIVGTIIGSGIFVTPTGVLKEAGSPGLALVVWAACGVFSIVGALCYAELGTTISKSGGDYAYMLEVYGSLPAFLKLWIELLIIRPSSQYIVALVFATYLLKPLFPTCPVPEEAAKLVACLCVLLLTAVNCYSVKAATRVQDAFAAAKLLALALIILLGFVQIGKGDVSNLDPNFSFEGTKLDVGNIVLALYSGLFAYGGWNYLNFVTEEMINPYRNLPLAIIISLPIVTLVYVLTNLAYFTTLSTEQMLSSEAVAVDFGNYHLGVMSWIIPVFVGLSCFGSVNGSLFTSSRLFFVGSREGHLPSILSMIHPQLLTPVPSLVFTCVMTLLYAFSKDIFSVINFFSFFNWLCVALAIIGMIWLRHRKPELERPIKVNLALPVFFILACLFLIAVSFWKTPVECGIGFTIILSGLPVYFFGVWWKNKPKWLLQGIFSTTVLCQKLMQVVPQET
T1 sequence (P08195 102-630 partner): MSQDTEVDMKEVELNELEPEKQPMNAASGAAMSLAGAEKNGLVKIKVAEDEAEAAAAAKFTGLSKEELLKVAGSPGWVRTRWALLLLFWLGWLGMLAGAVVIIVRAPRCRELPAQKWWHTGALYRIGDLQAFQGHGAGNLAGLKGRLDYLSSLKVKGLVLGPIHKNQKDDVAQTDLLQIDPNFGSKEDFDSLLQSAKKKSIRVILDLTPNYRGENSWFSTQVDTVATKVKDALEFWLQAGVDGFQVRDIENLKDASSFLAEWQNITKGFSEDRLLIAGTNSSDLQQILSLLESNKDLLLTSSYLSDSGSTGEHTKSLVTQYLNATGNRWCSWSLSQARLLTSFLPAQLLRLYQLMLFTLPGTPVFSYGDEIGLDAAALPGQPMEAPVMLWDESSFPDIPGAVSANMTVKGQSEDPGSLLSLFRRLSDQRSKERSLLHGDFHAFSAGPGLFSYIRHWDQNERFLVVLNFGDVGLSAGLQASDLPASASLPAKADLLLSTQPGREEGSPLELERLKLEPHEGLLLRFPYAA

| Compound | sustained LAT1 inhibitory effect as compared with Example 1-1 [1] | antitumor effect by neutron irradiation (tumor volume 11 days after irradiation) ([2]; Group 1: 400 mg/kg L-[10B]BPA i.v., then compound 25 mg/kg i.v. after 1 and 1.5 hours) | Assay Data: degree of [14C]L-leucine uptake inhibition compared with BCH [3] | LAT1 inhibitory effect, compounds singled out (in words) [3] | IC50 [4] | BNCT effect of L-[10B]BPA without compound (tumor volume 11 days after irradiation) ([2]; Group 3: 400 mg/kg L-[10B]BPA i.v., solvent instead of Example 1-45) | cell death caused by neutron irradiation, L-[10B]BPA without compound treatment [5] |
| --- | --- | --- | --- | --- | --- | --- | --- |
| Cl.NC1(C(=O)O)CCc2ccc(Oc3ccccc3-c3cccc(F)c3F)cc2C1 (stereo not drawn) [Example 1-45, 2-Carboxy-7-((2′,3′-difluoro-[1,1′-biphenyl]-2-yl)oxy)-1,2,3,4-tetrahydronaphthalene-2-aminium chloride] | more remarkable effect | large antitumor effect | A | particularly remarkable effects | ≤ 0.9 µM |  |  |
| Cl.NC1(C(=O)O)CCc2ccc(Oc3ccccc3-c3cccc(Cl)c3F)cc2C1 (stereo not drawn) [Example 1-54, 2-carboxy-7-((3′-Chloro-2′-fluoro-[1,1′-biphenyl]-2-yl)oxy)-1,2,3,4-tetrahydronaphthalene-2-aminium chloride] | more remarkable effect |  | A | particularly remarkable effects | ≤ 0.9 µM |  |  |
| Cc1cccc(-c2ccccc2Oc2ccc3c(c2)CC(N)(C(=O)O)CC3)c1F.Cl (stereo not drawn) [Example 1-55, 2-Carboxy-7-((2′-fluoro-3′-methyl-[1,1′-biphenyl]-2-yl)oxy)-1,2,3,4-tetrahydronaphthalene-2-aminium chloride] | more remarkable effect |  | A | particularly remarkable effects | ≤ 0.9 µM |  |  |
| Cc1cccc(-c2ccccc2Oc2ccc3c(c2)CC(N)(C(=O)O)CC3)c1Cl.Cl (stereo not drawn) [Example 1-57, 2-carboxy-7-((2′-Chloro-3′-methyl-[1,1′-biphenyl]-2-yl)oxy)-1,2,3,4-tetrahydronaphthalene-2-aminium chloride] | more remarkable effect |  | A | particularly remarkable effects | ≤ 0.9 µM |  |  |
| Cl.NC1(C(=O)O)CCc2ccc(Oc3ccccc3-c3ccc(F)c(F)c3F)cc2C1 (stereo not drawn) [Example 1-58, 2-carboxy-7-((2′,3′,4′-trifluoro-[1,1′-biphenyl]-2-yl)oxy)-1,2,3,4-tetrahydronaphthalene-2-aminium chloride] | more remarkable effect |  | A | particularly remarkable effects | ≤ 0.9 µM |  |  |
| Cl.NC1(C(=O)O)CCc2ccc(Oc3ccccc3-c3ccc(F)cc3F)cc2C1 (stereo not drawn) [Example 1-59, 2-Carboxy-7-((2′,4′-difluoro-[1,1′-biphenyl]-2-yl)oxy)-1,2,3,4-tetrahydronaphthalene-2-aminium chloride] | more remarkable effect |  | A |  | ≤ 0.9 µM |  |  |
| C=Cc1cccc(-c2ccccc2Oc2ccc3c(c2)CC(N)(C(=O)O)CC3)c1.Cl (stereo not drawn) [Example 1-62, 2-carboxy-7-((3′-vinyl-[1,1′-biphenyl]-2-yl)oxy)-1,2,3,4-tetrahydronaphthalene-2-aminium chloride] | more remarkable effect |  | A |  | ≤ 0.9 µM |  |  |
| Cl.NC1(C(=O)O)CCc2ccc(Oc3ccccc3-c3cc(F)cc(F)c3F)cc2C1 (stereo not drawn) [Example 1-63, 2-carboxy-7-((2′,3′,5′-trifluoro-[1,1′-biphenyl]-2-yl)oxy)-1,2,3,4-tetrahydronaphthalene-2-aminium chloride] | more remarkable effect |  | A | particularly remarkable effects | ≤ 0.9 µM |  |  |
| N[C@@H](Cc1ccc(B(O)O)cc1)C(=O)O [L-[10B]BPA, L-boronophenylalanine, reference compound] |  |  |  |  |  | no BNCT effect was obtained | about No BPA Hot control |
